In ChEMBL document CHEMBL5131382, “Facile and divergent optimization of chromazonarol enabled the identification of simplified drimane meroterpenoids as novel pharmaceutical leads” (Eur J Med Chem, 2022) one finds EC50 and inhibition data, which are given here for 21 compounds.

One assay deals with HepG2. Kind of assay: Antiproliferative activity against human HepG2 cells assessed as inhibition of cell proliferation incubated for 72 hrs by MTT assay. The format is functional, cell-based. Conditions: HepG2, 72 h.
The test system of another assay is Phytophthora capsici. Kind of assay: Antifungal activity against Phytophthora capsici at 150 uM. In kind it is functional.
The subject of assay [1] is Sclerotinia sclerotiorum. Kind of assay: Antifungal activity against Sclerotinia sclerotiorum at 150 uM. The format is functional.
The test system of a further assay is MCF7. Kind of assay: Antiproliferative activity against human MCF7 cells assessed as inhibition of cell proliferation incubated for 72 hrs by MTT assay. Conditions: MCF7, 72 h. The format is functional, cell-based.
Assay [2] has as its system Rhizoctonia solani. Description: Antifungal activity against Rhizoctonia solani at 150 uM. In kind it is functional.
Another assay concerns Fusarium graminearum. Description: Antifungal activity against Fusarium graminearum at 150 uM. The format is functional.
The subject of assay [3] is Sclerotinia sclerotiorum. Description: Antifungal activity against Sclerotinia sclerotiorum. The format is functional, organism-based.
Another assay deals with Pyricularia oryzae. Description: Antifungal activity against Pyricularia oryzae at 150 uM. The format is functional.
Assay [4] deals with Rhizoctonia solani. Description: Antifungal activity against Rhizoctonia solani. In kind it is functional, organism-based.

With `CC1(C)CCC[C@]2(C)[C@@H](Cc3cc(O)ccc3O)[C@](C)(O)CC[C@@H]12`, the EC50 is over 50 µM with HepG2, 50 µM with MCF7, over 150 µM with Sclerotinia sclerotiorum [3] and over 150 µM in the assay with Rhizoctonia solani [4]. For the same compound, the inhibition at 150 µM in the assay on Phytophthora capsici came to 28%; in the assay on Sclerotinia sclerotiorum [1] it was 39%; in the assay with Rhizoctonia solani [2], 48%; in the assay on Fusarium graminearum, 39%; with Pyricularia oryzae it was 28%.

In the case of `CC1(C)CCC[C@]2(C)[C@@H](Cc3ccc(O)cc3O)[C@](C)(O)CC[C@@H]12`, the EC50 with HepG2 was found to be 10.2 µM; in the assay on MCF7 it was 11.9 µM; with Sclerotinia sclerotiorum [3], 15.2 µM; in the assay on Rhizoctonia solani [4] it was 41.7 µM. Further, the inhibition at 150 µM with Phytophthora capsici was found to be 37%; in the assay with Sclerotinia sclerotiorum [1], 81%; with Rhizoctonia solani [2], 91%; in the assay on Fusarium graminearum, 41%; in the assay with Pyricularia oryzae it was 9%.

Consider `CC1(C)CCC[C@]2(C)[C@H]3Cc4ccc(O)cc4O[C@]3(C)CC[C@@H]12`, for which the inhibition at 150 µM in the assay with Phytophthora capsici worked out at 53%; with Sclerotinia sclerotiorum [1] it was 47%; in the assay with Rhizoctonia solani [2], 72%; with Fusarium graminearum, 49%; with Pyricularia oryzae, 50%.

Take `CC1(C)CCC[C@]2(C)[C@H]3Cc4cccc(O)c4O[C@]3(C)CC[C@@H]12`: the inhibition at 150 µM with Phytophthora capsici was found to be 40%; in the assay with Sclerotinia sclerotiorum [1], 22%; with Rhizoctonia solani [2] it was 53%; with Fusarium graminearum, 31%; with Pyricularia oryzae, 21%.

As for `CC1(C)CCC[C@@]2(C)C1CC[C@@]1(C)Oc3ccc(OS(=O)(=O)C(F)(F)F)cc3C[C@@H]12` (stereo partly specified), the inhibition at 150 µM with Phytophthora capsici, with Sclerotinia sclerotiorum [1], in the assay with Rhizoctonia solani [2], in the assay on Fusarium graminearum and in the assay with Pyricularia oryzae was under 60% throughout.

Consider `Cc1c(C[C@@H]2[C@@]3(C)CCCC(C)(C)[C@H]3CC[C@]2(C)O)c(O)cc(O)c1C[C@@H]1[C@@]2(C)CCCC(C)(C)[C@@H]2CC[C@@]1(C)O`, for which the inhibition at 150 µM in the assay with Phytophthora capsici is 6%; in the assay with Sclerotinia sclerotiorum [1], 6%; in the assay on Rhizoctonia solani [2], 1%; with Fusarium graminearum it was 4%; with Pyricularia oryzae, -4%.

As to `CC1(C)CCC[C@@]2(C)C1CC[C@@]1(C)Oc3ccc(O)c(Cl)c3C[C@@H]12` (stereo partly specified), the inhibition at 150 µM in the assay with Phytophthora capsici, in the assay with Sclerotinia sclerotiorum [1], in the assay with Rhizoctonia solani [2], in the assay with Fusarium graminearum and in the assay with Pyricularia oryzae was under 60% throughout.

Consider `CC1(C)CCC[C@]2(C)[C@H]3Cc4c(O)cccc4O[C@]3(C)CC[C@@H]12`, for which the inhibition at 150 µM worked out at 54% with Phytophthora capsici; 52% in the assay on Sclerotinia sclerotiorum [1]; 75% in the assay with Rhizoctonia solani [2]; 43% with Fusarium graminearum; 45% with Pyricularia oryzae.

`CC1(C)CCC[C@]2(C)[C@@H](Cc3ccc(O)c(O)c3)[C@](C)(O)CC[C@@H]12`: the inhibition at 150 µM with Phytophthora capsici amounted to 72%; in the assay on Sclerotinia sclerotiorum [1], 61%; in the assay on Rhizoctonia solani [2], 49%; with Fusarium graminearum it was 38%; in the assay with Pyricularia oryzae, 50%.

As to `COc1cc2c(cc1OC)O[C@]1(C)CC[C@H]3C(C)(C)CCC[C@]3(C)[C@H]1C2`, the inhibition at 150 µM was 5% with Phytophthora capsici; 21% in the assay on Sclerotinia sclerotiorum [1]; 13% in the assay with Rhizoctonia solani [2]; 29% in the assay with Fusarium graminearum; 9% in the assay on Pyricularia oryzae.

As to `CC1(C)CCC[C@]2(C)[C@@H](Cc3c(O)cccc3O)[C@](C)(O)CC[C@@H]12`, the EC50 was determined as 13.9 µM with HepG2, 16 µM with MCF7, 26.7 µM in the assay with Sclerotinia sclerotiorum [3] and 29.3 µM with Rhizoctonia solani [4]. Also, the inhibition at 150 µM in the assay on Phytophthora capsici stood at 50%; in the assay with Sclerotinia sclerotiorum [1] it was 84%; in the assay on Rhizoctonia solani [2], 88%; in the assay with Fusarium graminearum it was 49%; with Pyricularia oryzae, 15%.

For `Cc1cc(O)cc(O)c1C[C@@H]1[C@@]2(C)CCCC(C)(C)[C@@H]2CC[C@@]1(C)O`, the EC50 amounted to 11.1 µM in the assay on HepG2, 11.3 µM with MCF7, 40.4 µM with Sclerotinia sclerotiorum [3] and 35.2 µM in the assay on Rhizoctonia solani [4]. Moreover, the inhibition at 150 µM with Phytophthora capsici turned out to be 29%; in the assay on Sclerotinia sclerotiorum [1], 82%; with Rhizoctonia solani [2], 92%; in the assay with Fusarium graminearum, 56%; in the assay on Pyricularia oryzae it was 65%.

For `CC1(C)CCC[C@]2(C)[C@H]3Cc4cc(O)cc(O)c4[C@]3(C)CC[C@@H]12`, the inhibition at 150 µM in the assay with Phytophthora capsici turned out to be 65%; with Sclerotinia sclerotiorum [1], 43%; in the assay with Rhizoctonia solani [2], 68%; in the assay with Fusarium graminearum, 60%; in the assay with Pyricularia oryzae it was 49%.

`CC1(C)CCC[C@]2(C)[C@@H](Cc3cc(O)cc(O)c3)[C@](C)(O)CC[C@@H]12`: the inhibition at 150 µM in the assay with Phytophthora capsici is 3%; with Sclerotinia sclerotiorum [1] it was 10%; with Rhizoctonia solani [2], -10%; in the assay with Fusarium graminearum, 5%; in the assay with Pyricularia oryzae it was -5%.

For the compound `CC1(C)CCC[C@]2(C)[C@@H](Cc3cccc(O)c3O)[C@](C)(O)CC[C@@H]12`, the inhibition at 150 µM was determined as 24% in the assay with Phytophthora capsici; 42% in the assay on Sclerotinia sclerotiorum [1]; 42% in the assay with Rhizoctonia solani [2]; 36% in the assay with Fusarium graminearum; 24% in the assay with Pyricularia oryzae.

As to `Cc1ccc(O)c(C[C@@H]2[C@@]3(C)CCCC(C)(C)[C@@H]3CC[C@@]2(C)O)c1`, the inhibition at 150 µM is 1% with Phytophthora capsici; 8% with Sclerotinia sclerotiorum [1]; -12% with Rhizoctonia solani [2]; -4% in the assay on Fusarium graminearum; -5% in the assay with Pyricularia oryzae.

Regarding `CC1(C)CCC[C@]2(C)C3=CC4=CC(=O)C(=O)C=C4O[C@]3(C)CC[C@@H]12`, the inhibition at 150 µM is 18% with Phytophthora capsici; 37% in the assay on Sclerotinia sclerotiorum [1]; 15% in the assay on Rhizoctonia solani [2]; 44% in the assay on Fusarium graminearum; -2% with Pyricularia oryzae.

In the case of `CC1(C)CCC[C@]2(C)[C@@H](Cc3cc(C(=O)O)ccc3O)[C@](C)(O)CC[C@@H]12`, the EC50 in the assay on HepG2 was over 50 µM; in the assay with MCF7, 50 µM; in the assay on Sclerotinia sclerotiorum [3] it was 22.2 µM; in the assay on Rhizoctonia solani [4] it was 22.5 µM. Further, the inhibition at 150 µM came out at 62% with Phytophthora capsici; 84% in the assay on Sclerotinia sclerotiorum [1]; 85% in the assay on Rhizoctonia solani [2]; 56% in the assay on Fusarium graminearum; 60% in the assay with Pyricularia oryzae.

Turning to `CC1(C)CCC[C@@]2(C)[C@H]1CCC1(C)Oc3ccc(Oc4cccnc4)cc3C[C@@H]12` (single isomer, unassigned), the inhibition at 150 µM in the assay with Phytophthora capsici, with Sclerotinia sclerotiorum [1], in the assay on Rhizoctonia solani [2], with Fusarium graminearum and in the assay on Pyricularia oryzae was under 60% in each case.

Take `Cc1cc(O)c(C[C@@H]2[C@@]3(C)CCCC(C)(C)[C@@H]3CC[C@@]2(C)O)c(O)c1` [ALBACONOL]: the EC50 in the assay with HepG2 is 10.4 µM; in the assay with MCF7, 10.1 µM; with Sclerotinia sclerotiorum [3] it was 24.4 µM; with Rhizoctonia solani [4] it was over 150 µM. Besides, the inhibition at 150 µM with Phytophthora capsici was 30%; with Sclerotinia sclerotiorum [1], 72%; in the assay on Rhizoctonia solani [2] it was 49%; in the assay on Fusarium graminearum, 43%; in the assay with Pyricularia oryzae it was 7%.

On to `O=C(Nc1ccccc1-c1ccc(Cl)cc1)c1cccnc1Cl` [BOSCALID], for which the inhibition at 150 µM came out at 23% with Phytophthora capsici; 79% in the assay on Sclerotinia sclerotiorum [1]; 93% with Rhizoctonia solani [2]; 27% in the assay on Fusarium graminearum; 74% with Pyricularia oryzae. The EC50 in the assay on Sclerotinia sclerotiorum [3] was determined as 0.75 µM; in the assay on Rhizoctonia solani [4], 1.62 µM.
